In patent publication US20250129104A1, “7H-PYRROLO[2,3-D]PYRIMIDINES AND PREPARATION AND USES THEREOF” (BioSplice Therapeutics, Inc., priority 2021, published 2025):
pEC50: −log10 of the molar value.

biological target: recombinant DYRK1A kinase (Homo sapiens (Human), UniProt Q13627); assay: DYRK1A kinase assay (Ser/Thr 18 peptide Z-lyte FRET assay); format: biochemical; conditions: DYRK1A kinase activity; 15 μM ATP, 1 h room temperature; method text calls the value IC50
Method: Representative compounds were screened using the assay procedure for DYRK1A kinase activity as described below.
Each compound was dissolved in DMSO as a 10 mM stock and used to prepare compound source plates. Serial dilution (1:3, 11-point dose-response curves from 10 μM to 0.00016 μM) and compound transfer was performed using the ECHO 550 (Labcyte, Sunnyvale, CA) into 1536-well black-walled round bottom plates (Corning).
The DYRK1A kinase assay was run using the Ser/Thr 18 peptide Z-lyte assay kit according to manufacturer's instructions (Life Technologies—a Division of Thermo-Fisher). This is a non-radioactive assay using fluorescence resonance energy transfer (FRET) between coumarin and fluorescein to detect kinase activity which is represented as a ratio of coumarin emission/fluorescein emission.
Briefly, recombinant DYRK1A kinase, ATP and Ser/Thr peptide 18 were prepared in 1× Kinase buffer to final concentrations of 0.25 μg/mL, 15 μM, and 4 μM respectively. The mixture was allowed to incubate with the representative compounds for one hour at room temperature. All reactions were performed in duplicate. Unphosphorylated (“0% Control”) and phosphorylated (“100% control”) forms of Ser/Thr 18 served as control reactions. Additionally, an 11-point dose-response curve of Staurosporine (1 uM top) was run to serve as a positive compound control.
After incubation, Development Reagent A was diluted in Development Buffer then added to the reaction and allowed to further incubate for one hour at room temperature. The plate was read at Ex 400 Em […] to detect the coumarin signal and Ex 400 Em 520 to measure the signal (EnVision Multilabel Plate Reader, PerkinElmer).
The Emission ratio (Em) was calculated as a ratio of the coumarin (C) emission signal (at 445 nm)/Fluorescein (F) emission signal (at 520 nm). The percent phosphorylation was then calculated using the following formula: [1−((Em ratio×F100%)−C100%)/((C0%−C100%)+(Em ratio×(F100%−F0%)))]. Dose-response curves were generated, and inhibitory concentration (IC50) values were calculated using non-linear regression curve fit in the Dotmatics' Studies Software (Bishops Stortford, UK).

| SMILES | pEC50 |
| --- | --- |
| CC(C)Cc1ncc2c(-c3ccc4nnn(C)c4c3)c[nH]c2n1 [Compound 810, 6-(2-Isobutyl-7H-pyrrolo[2,3-d]pyrimidin-5-yl)-1-methyl-1H-benzo[d][1,2,3]triazole] | 7.18 |
| Cn1nnc2ccc(-c3c[nH]c4nc(CCC(F)(F)F)ncc34)cc21 [Compound 811, 1-Methyl-6-(2-(3,3,3-trifluoropropyl)-7H-pyrrolo[2,3-d]pyrimidin-5-yl)-1H-benzo[d][1,2,3]triazole] | 7.48 |
| Cn1nnc2ccc(-c3c[nH]c4nc(NCC(C)(C)F)ncc34)cc21 [Compound 822, N-(2-Fluoro-2-methylpropyl)-5-(1-methyl-1H-benzo[d][1,2,3]triazol-6-yl)-7H-pyrrolo[2,3-d]pyrimidin-2-amine] | 8.54 |
| Cn1nnc2ccc(-c3c[nH]c4nc(NCC(C)(F)F)ncc34)cc21 [Compound 823, N-(2,2-Difluoropropyl)-5-(1-methyl-1H-benzo[d][1,2,3]triazol-6-yl)-7H-pyrrolo[2,3-d]pyrimidin-2-amine] | 8.22 |
| Cn1nnc2ccc(-c3c[nH]c4nc(NCC(F)(F)F)ncc34)cc21 [Compound 824, 5-(1-Methyl-1H-benzo[d][1,2,3]triazol-6-yl)-N-(2,2,2-trifluoroethyl)-7H-pyrrolo[2,3-d]pyrimidin-2-amine] | 8.47 |
| C[C@@H](Nc1ncc2c(-c3ccc4nnn(C)c4c3)c[nH]c2n1)C(F)(F)F [Compound 825, (R)-5-(1-Methyl-1H-benzo[d][1,2,3]triazol-6-yl)-N-(1,1,1-trifluoropropan-2-yl)-7H-pyrrolo[2,3-d]pyrimidin-2-amine] | 8.32 |
| C[C@H](Nc1ncc2c(-c3ccc4nnn(C)c4c3)c[nH]c2n1)C(F)(F)F [Compound 826, (S)-5-(1-Methyl-1H-benzo[d][1,2,3]triazol-6-yl)-N-(1,1,1-trifluoropropan-2-yl)-7H-pyrrolo[2,3-d]pyrimidin-2-amine] | 7.37 |
| CN1CCC(Nc2ncc3c(-c4ccc5nnn(C)c5c4)c[nH]c3n2)CC1 [Compound 841, 5-(1-Methyl-1H-benzo[d][1,2,3]triazol-6-yl)-N-(1-methylpiperidin-4-yl)-7H-pyrrolo[2,3-d]pyrimidin-2-amine] | 7.87 |
| Cn1nnc2ccc(-c3c[nH]c4nc(NC5CCOCC5)ncc34)cc21 [Compound 843, 5-(1-Methyl-1H-benzo[d][1,2,3]triazol-6-yl)-N-(tetrahydro-2H-pyran-4-yl)-7H-pyrrolo[2,3-d]pyrimidin-2-amine] | 7.63 |
| CCn1nnc2ccc(-c3c[nH]c4nc(NCC(C)(C)F)ncc34)cc21 [Compound 865, 5-(1-Ethyl-1H-benzo[d][1,2,3]triazol-6-yl)-N-(2-fluoro-2-methylpropyl)-7H-pyrrolo[2,3-d]pyrimidin-2-amine] | 8.14 |
| Cc1nnc2ccc(-c3c[nH]c4nc(NCC(C)(C)F)ncc34)cn12 [Compound 895, N-(2-Fluoro-2-methylpropyl)-5-(3-methyl-[1,2,4]triazolo[4,3-a]pyridin-6-yl)-7H-pyrrolo[2,3-d]pyrimidin-2-amine] | 7.08 |
| CC(C)Cc1ncc2c(-c3ccc4nccn4n3)c[nH]c2n1 [Compound 897, 5-(Imidazo[1,2-b]pyridazin-6-yl)-2-isobutyl-7H-pyrrolo[2,3-d]pyrimidine] | 7.18 |
| CC(C)(C)CNc1ncc2c(-c3ccc4nccn4n3)c[nH]c2n1 [Compound 907, 5-(Imidazo[1,2-b]pyridazin-6-yl)-N-neopentyl-7H-pyrrolo[2,3-d]pyrimidin-2-amine] | 8.06 |
| FC(F)(F)CNc1ncc2c(-c3ccc4nccn4n3)c[nH]c2n1 [Compound 911, 5-(Imidazo[1,2-b]pyridazin-6-yl)-N-(2,2,2-trifluoroethyl)-7H-pyrrolo[2,3-d]pyrimidin-2-amine] | 8.02 |
| C[C@@H](Nc1ncc2c(-c3ccc4nccn4n3)c[nH]c2n1)C1CC1 [Compound 918, (R)—N-(1-Cyclopropylethyl)-5-(imidazo[1,2-b]pyridazin-6-yl)-7H-pyrrolo [2,3-d]pyrimidin-2-amine] | 8.47 |
| c1cn2nc(-c3c[nH]c4nc(NC5CCOCC5)ncc34)ccc2n1 [Compound 930, 5-(Imidazo[1,2-b]pyridazin-6-yl)-N-(tetrahydro-2H-pyran-4-yl)-7H-pyrrolo[2,3-d]pyrimidin-2-amine] | 8.40 |
| CC(C)(F)CNc1ncc2c(-c3ccc4ncc(Cl)n4n3)c[nH]c2n1 [Compound 952, 5-(3-chloroimidazo[1,2-b]pyridazin-6-yl)-N-(2-fluoro-2-methylpropyl)-7H-pyrrolo[2,3-d]pyrimidin-2-amine] | 8.57 |
| Cc1cn2nc(-c3c[nH]c4nc(NC(C)C)ncc34)ccc2n1 [Compound 991, N-Isopropyl-5-(2-methylimidazo[1,2-b]pyridazin-6-yl)-7H-pyrrolo[2,3-d]pyrimidin-2-amine] | 7.59 |
| Cc1cn2nc(-c3c[nH]c4nc(NCC(C)(C)F)ncc34)ccc2n1 [Compound 995, N-(2-Fluoro-2-methylpropyl)-5-(2-methylimidazo[1,2-b]pyridazin-6-yl)-7H-pyrrolo[2,3-d]pyrimidin-2-amine] | 8.03 |
| Cc1cnc2ccc(-c3c[nH]c4nc(NC5CCN(C)CC5)ncc34)nn12 [Compound 1057, 5-(3-Methylimidazo[1,2-b]pyridazin-6-yl)-N-(1-methylpiperidin-4-yl)-7H-pyrrolo[2,3-d]pyrimidin-2-amine] | 8.01 |
| CC(C)(F)CNc1ncc2c(-c3ccc4ncc(C(F)F)n4n3)c[nH]c2n1 [Compound 1081, 5-(3-(Difluoromethyl)imidazo[1,2-b]pyridazin-6-yl)-N-(2-fluoro-2-methylpropyl)-7H-pyrrolo[2,3-d]pyrimidin-2-amine] | 8.59 |
| CC(C)(F)CNc1ncc2c(-c3ccn4nccc4c3)c[nH]c2n1 [Compound 1125, N-(2-Fluoro-2-methylpropyl)-5-(pyrazolo[1,5-a]pyridin-5-yl)-7H-pyrrolo [2,3-d]pyrimidin-2-amine] | 8.34 |
| C[C@@H](Nc1ncc2c(-c3ccn4nccc4c3)c[nH]c2n1)C(F)(F)F [Compound 1128, (R)-5-(Pyrazolo[1,5-a]pyridin-5-yl)-N-(1,1,1-trifluoropropan-2-yl)-7H-pyrrolo[2,3-d]pyrimidin-2-amine] | 8.62 |
| CN1CCC(Nc2ncc3c(-c4ccn5nccc5c4)c[nH]c3n2)CC1 [Compound 1146, N-(1-Methylpiperidin-4-yl)-5-(pyrazolo[1,5-a]pyridin-5-yl)-7H-pyrrolo[2,3-d]pyrimidin-2-amine] | 7.55 |
| CC(C)(F)CNc1ncc2c(-c3ccn4ncc(F)c4c3)c[nH]c2n1 [Compound 1157, N-(2-Fluoro-2-methylpropyl)-5-(3-fluoropyrazolo[1,5-a]pyridin-5-yl)-7H-pyrrolo[2,3-d]pyrimidin-2-amine] | 7.16 |
| CN1CCC(Nc2ncc3c(-c4ccn5ncc(-c6cnn(C)c6)c5c4)c[nH]c3n2)CC1 [Compound 1190, 5-(3-(1-Methyl-1H-pyrazol-4-yl)pyrazolo[1,5-a]pyridin-5-yl)-N-(1-methylpiperidin-4-yl)-7H-pyrrolo[2,3-d]pyrimidin-2-amine] | 8.52 |
| O=C(c1cnn2ccc(-c3c[nH]c4nc(C5CCC5)ncc34)cc12)N1CCCCC1 [Compound 1205, (5-(2-Cyclobutyl-7H-pyrrolo[2,3-d]pyrimidin-5-yl)pyrazolo[1,5-a]pyridin-3-yl)(piperidin-1-yl)methanone] | 6.59 |
